From patent publication US20250367129A1, “Lipid Compounds and Uses Thereof” (Pfizer Inc., priority 2022, published 2025)

Tests used:
[1] = LNP size and polydispersity index by Malvern Zetasizer dynamic light scattering (CA HA modFlu mRNA LNPs); format: physicochemical; conditions: DLS; for Size (nm): LNP of the ionizable lipid:cholesterol:DSPC:ALC-0159 about 46.3:42.7:9.4:1.6, N:P about 6:1, CA HA modFlu mRNA; for PDI: LNP with CA HA modFlu mRNA
Protocol: (§1) Lipid nanoparticles were prepared and tested according to the general procedures described in U.S. Pat. No. 9,737,619 (PCT Pub. No. WO2015/199952) and U.S. Pat. No. 10,166,298 (PCT Pub. No. WO 2017/075531) and PCT Pub. No. WO2020/146805. The novel ionizable lipids of the invention, cholesterol, distearoylphosphatidylcholine (DSPC) and ALC-0159 2-[(polyethylene glycol)-2000]-N,N ditetradecylacetamide were solubilized in ethanol at a molar ratio of about 46.3:42.7:9.4:1.6. Lipid nanoparticles were made by mixing the lipids containing organic phase with the mRNA containing aqueous phase using an N:P ratio of about 6:1. The mRNA was diluted in buffer. Syringe pumps were used to mix the ethanolic lipid solution with the mRNA aqueous solution. The ethanol was then removed, and the external buffer replaced with another buffer (e.g., Tris) by dialysis. Finally, the lipid nanoparticles were filtered.
(§2) Total RNA concentration and encapsulation efficiency was assessed using the RiboGreen RNA quantitation assay. RNA integrity pre and post formulation was monitored by Agilent Fragment Analyzer capillary gel electrophoresis. Malvern Zetasizer dynamic light scattering (DLS) was used to determine LNP size and polydispersity index (PDI). In vitro expression of the novel ionizable lipid nanoparticles was assessed in HEK293F and Hela cells similar to described in Example 72. Nuclear count and identification of cells stained positive for gene of interest was done on an Opera Phenix high content imager (PerkinElmer, USA).

[2] = Encapsulation efficiency, RiboGreen RNA quantitation assay (CA HA modFlu mRNA LNPs); format: physicochemical; conditions: LNP with CA HA modFlu mRNA
Protocol: as §1, §2

HEK293F cells = experiment: In vitro expression of novel ionizable lipid nanoparticles, high content imaging (CA HA modFlu mRNA); format: cell-based; conditions: LNP with CA HA modFlu mRNA
Protocol: (§3) Plated Hek293T or Hela cells were dosed with lipid nanoparticles in a total volume of 40 μl cell culture media and incubated overnight at 37° C. and 5% CO2. After fixation with 4% paraformaldehyde in PBS cells were washed in PBS containing 0.3% Triton-X100 and 3% BSA (w/v), followed by nuclear staining with Hoechst and antibody staining for the encoded gene of interest. Nuclear count and identification of cells stained positive for gene of interest was done on an Opera Phenix high content imager (PerkinElmer, USA).
as §1, §2

Hela cells = experiment: as above; format: cell-based; conditions: LNP with CA HA modFlu mRNA
Protocol: as §3, §1, §2

SMILES | Size (nm) [1] [nm] | PDI [1] | EE % [2] [%] | EC50 Hek293F (ng/well) (HEK293F cells) | EC50 Hela (ng/well) (Hela cells)
CCCCCCCCC(CCCCCCCC)C(=O)OCC(COC(=O)C(CCCCCCCC)CCCCCCCC)N1CCC2(CCN(CCCCO)CC2)CC1 [Example 24, 2-(9-(4-hydroxybutyl)-3,9-diazaspiro[5.5]undecan-3-yl)propane-1,3-diyl bis(2-octyldecanoate)] | 82 | 0.072 | 99 | 0.48 | 0.72
CCCCCCCC(CCCCCCC)C(=O)OCC(COC(=O)C(CCCCCCC)CCCCCCC)N1CCC2(CCN(CCCCCO)CC2)CC1 [Example 25, 2-(9-(5-hydroxypentyl)-3,9-diazaspiro[5.5]undecan-3-yl)propane-1,3-diyl bis(2-heptylnonanoate)] | 137 | 0.040 | 99 | 0.42 | 0.61
CCCCCCCCC(CCCCCCC)C(=O)OCC(COC(=O)C(CCCCCCC)CCCCCCCC)N1CCC2(CCN(CCCCO)CC2)CC1 (centres unmarked) [Example 26, 2-(9-(4-hydroxybutyl)-3,9-diazaspiro[5.5]undecan-3-yl)propane-1,3-diyl bis(2-heptyldecanoate)] | 96 | 0.030 | 100 | 1.6 | 1.8
CCCCCCCCC(CCCC)C(=O)OCC(COC(=O)C(CCCC)CCCCCCCC)N1CCC2(CCN(CCCCO)CC2)CC1 (centres unmarked) [Example 27, 2-(9-(4-hydroxybutyl)-3,9-diazaspiro[5.5]undecan-3-yl)propane-1,3-diyl bis(2-butyldecanoate)] | 74 | 0.095 | 97 | 35.9 | 12.5
CCCCCCCCC(CCCCCC)CC(=O)OCC(COC(=O)CC(CCCCCC)CCCCCCCC)N1CCC2(CCN(CCCCO)CC2)CC1 (centres unmarked) [Example 28, 2-(9-(4-hydroxybutyl)-3,9-diazaspiro[5.5]undecan-3-yl)propane-1,3-diyl bis(3-hexylundecanoate)] | 96 | 0.025 | 99 | 9.9 | 6.4
CCCCCCCCC(CCCCC)C(=O)OCC(COC(=O)C(CCCCC)CCCCCCCC)N1CCC2(CCN(CCCCO)CC2)CC1 (centres unmarked) [Example 29, 2-(9-(4-hydroxybutyl)-3,9-diazaspiro[5.5]undecan-3-yl)propane-1,3-diyl bis(2-pentyldecanoate)] | 130 | 0.050 | 100 | 0.82 | 1.0
CCCCCCCCC(CC1CCC1)C(=O)OCC(COC(=O)C(CCCCCCCC)CC1CCC1)N1CCC2(CCN(CCCCO)CC2)CC1 (centres unmarked) [Example 30, 2-(9-(4-hydroxybutyl)-3,9-diazaspiro[5.5]undecan-3-yl)propane-1,3-diyl bis(2-(cyclobutylmethyl)decanoate)] | 102 | 0.030 | 99 | 12.6 | 3.3
CCCCCCCCCCCCC(CCCCCCC)C(=O)OCC(COC(=O)C(CCCCCCC)CCCCCCCCCCCC)N1CCC2(CCN(CCCCO)CC2)CC1 (centres unmarked) [Example 31, 2-(9-(4-hydroxybutyl)-3,9-diazaspiro[5.5]undecan-3-yl)propane-1,3-diyl bis(2-heptyltetradecanoate)] | 121 | 0.150 | 99 | 1.7 | 2.9
CCCCCCCCC(CC1CCCC1)C(=O)OCC(COC(=O)C(CCCCCCCC)CC1CCCC1)N1CCC2(CCN(CCCCO)CC2)CC1 (centres unmarked) [Example 32, 2-(9-(4-hydroxybutyl)-3,9-diazaspiro[5.5]undecan-3-yl)propane-1,3-diyl bis(2-(cyclopentylmethyl)decanoate)] | 132 | 0.060 | 100 | 0.96 | 0.91
CCCCCCCCC(CCCCCC)C(=O)OCC(COC(=O)C(CCCCCC)CCCCCCCC)N1CCC2(CCN(CCCCO)C2)C1 (centres unmarked) [Example 33, 2-(7-(4-hydroxybutyl)-2,7-diazaspiro[4.4]nonan-2-yl)propane-1,3-diyl bis(2-hexyldecanoate)] | 115 | 0.090 | 99 | 0.22 | 0.29
CCCCCCCCC(CCCCCC)C(=O)OCC(COC(=O)C(CCCCCC)CCCCCCCC)N1CC2(CCN(CCCCO)CC2)C1 (centres unmarked) [Example 34, 2-(7-(4-hydroxybutyl)-2,7-diazaspiro [3.5]nonan-2-yl)propane-1,3-diyl bis(2-hexyldecanoate)] | 130 | 0.040 | 99 | 2.1 | 3.8
CCCCCCCCC(CC1CC=CC1)C(=O)OCC(COC(=O)C(CCCCCCCC)CC1CC=CC1)N1CCC2(CCN(CCCCO)CC2)CC1 (centres unmarked) [Example 35, 2-(9-(4-hydroxybutyl)-3,9-diazaspiro[5.5]undecan-3-yl)propane-1,3-diyl bis(2-(cyclopent-3-en-1-ylmethyl)decanoate)] | 102 | 0.040 | 99 | 21.3 | 1.4
CCCCCCCCC(CCC1CCC1)C(=O)OCC(COC(=O)C(CCCCCCCC)CCC1CCC1)N1CCC2(CCN(CCCCO)CC2)CC1 (centres unmarked) [Example 36, 2-(9-(4-hydroxybutyl)-3,9-diazaspiro[5.5]undecan-3-yl)propane-1,3-diyl bis(2-(2-cyclobutylethyl)decanoate)] | 136 | 0.059 | 99 | 1.9 | 2.4
CCCCCCCCC(CC1CCCCC1)C(=O)OCC(COC(=O)C(CCCCCCCC)CC1CCCCC1)N1CCC2(CCN(CCCCO)CC2)CC1 (centres unmarked) [Example 37, 2-(9-(4-hydroxybutyl)-3,9-diazaspiro[5.5]undecan-3-yl)propane-1,3-diyl bis(2-(cyclohexylmethyl)decanoate)] | 143 | 0.070 | 99 | 0.67 | 0.90
CCCCC(CCCC)C(CCCC)CCC(=O)OCC(COC(=O)CCC(CCCC)C(CCCC)CCCC)N1CCC2(CCN(CCCCO)CC2)CC1 (centres unmarked) [Example 38, 2-(9-(4-hydroxybutyl)-3,9-diazaspiro[5.5]undecan-3-yl)propane-1,3-diyl bis(4,5-dibutylnonanoate)] | 146 | 0.100 | 100 | 28.1 | 7.0
CCCCCCC(CCCC)(CCCC)CC(=O)OCC(COC(=O)CC(CCCC)(CCCC)CCCCCC)N1CCC2(CCN(CCCCO)CC2)CC1 [Example 39, 2-(9-(4-hydroxybutyl)-3,9-diazaspiro[5.5]undecan-3-yl)propane-1,3-diyl bis(3,3-dibutylnonanoate)] | 134 | 0.080 | 100 | 4.1 | 3.4
CCCCCCCC(CCCCCCC)CCC(=O)OCC(COC(=O)CCC(CCCCCCC)CCCCCCC)N1CCC2(CCN(CCCCO)CC2)CC1 [Example 40, 2-(9-(4-hydroxybutyl)-3,9-diazaspiro[5.5]undecan-3-yl)propane-1,3-diyl bis(4-heptylundecanoate)] | 117 | 0.080 | 100 | 5.6 | 3.6
CCCCCCCC(CCCCCCC)C(=O)OCC(COC(=O)C(CCCCCCC)CCCCCCC)N1CCC2(CCN(CCCCCO)C2)C1 (centres unmarked) [Example 41, 2-(7-(5-hydroxypentyl)-2,7-diazaspiro [4.4]nonan-2-yl)propane-1,3-diyl bis(2-heptylnonanoate)] | 119 | 0.060 | 99 | 0.20 | 0.30
CCCCCCCCCC(=O)OCC(COC(=O)C(CCCCCC)CCCCCCCC)N1CCC2(CCN(CCCCO)CC2)CC1 (centres unmarked) [Example 42, 3-(decanoyloxy)-2-(9-(4-hydroxybutyl)-3,9-diazaspiro[5.5]undecan-3-yl)propyl 2-hexyldecanoate] | 100 | 0.080 | 99 | 42.7 | >50
